# Measured values: patent US20250339569A1, “CARBONIC ANHYDRASE IX LIGANDS” (priority 2021, published 2025)
# Starred links: 1 amine or outer side, 2 acyl side, 3 side chain; linkers in the order of their positions; H or OH if unused. Positions of bridges follow the written chain, without caps; N, C: chain ends. Non-standard residues stand in square brackets, D forms with d. Residues, ends and D or L forms follow the SMILES beside them. *: point of attachment. NH(CH2)5NHDOTA = O=C(O)CN1CCN(CC(=O)O)CCN(CC(=O)NCCCCCN*)CCN(CC(=O)O)CC1; NH(CH2)3NHDOTA = O=C(O)CN1CCN(CC(=O)O)CCN(CC(=O)NCCCN*)CCN(CC(=O)O)CC1; X3 = O=C(O)CN1CCN(CC(=O)O)CCN(CC(=O)NCCCOCCOCCOCCCN*)CCN(CC(=O)O)CC1; DOTA = O=C(O)CN1CCN(CC(=O)O)CCN(CC(=O)*)CCN(CC(=O)O)CC1; mXylylene = c1cc(C[*:1])cc(C[*:2])c1; X2 = O=C(CN1CCC(N[*:1])CC1)[*:2]; Suc = O=C(CCC(=O)[*:2])[*:1]
# What was measured:
# [1] = biological target: T1, CAIX-expressing human HT-29 colorectal cancer cells (Homo sapiens, UniProt Q16790); test: FACS binding assay (IC50 determination, competition with tracer 3BP-2776 or 3BP-4149); conditions: FACS competition on HT-29 cells, Tracer ID 3BP-2776 (10 nM, biotin-labeled), 4° C., 1 hour; read-out: pIC50 category (activity) (converted)
# T1 construct: CAIX-expressing human HT-29 colorectal cancer cells; host or cells: HT-29 human colorectal cancer cells
# Summary of the method: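 HT-29 cells in FACS buffer (PBS, 1% FCS) at 500.000 cells/ml were exposed to compounds competing with a labelled tracer, with biotinylated compounds detected by 1 μg/mL APC-streptavidin for 30 min on ice. APC/Cy5 median fluorescence was read by flow cytometry and IC50 derived by 4PL fit.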
# [2] = biological target: T2, human carbonic anhydrase IX (hCAIX-Fc) (Homo sapiens, UniProt Q16790); test: Surface plasmon resonance assay with hCAIX-Fc; format: binding; conditions: 25° C.; for t1/2 category (activity): SPR dissociation half-life, hCAIX-Fc; for Kd: SPR, hCAIX-Fc captured, read-out: pKD category (activity) (converted)
# T2 construct: purchased SinoBliological (Sino Biological) 10107-H02H
# [3] = biological target: T3, Recombinant soluble human NEP (Homo sapiens, UniProt P08473); test: Proteolytic stability assay against NEP; format: in vitro ADME; conditions: 100 ng/mL NEP, 10 μM compound, 37°C
# T3 construct: Recombinant soluble human NEP; purchased BioTechne, Wiesbaden, Germany
# Method: To assess the stability of compounds against NEP, the compounds were subjected to an in vitro assay based on the protocol described by Edelson et al. (Edelson et al., Pulmonary pharmacology & therapeutics, 2013, 26, 229-238).
# Recombinant soluble human NEP (BioTechne, Wiesbaden, Germany) at a concentration of 100 ng/mL was mixed with the compound (10 μM) and a stable internal standard (10 μM) and incubated at 37° C. After several time points, samples were taken and analyzed with LC-MS.
# The activity of NEP was examined using a commercially available chromogenic substrate of NEP.
# [4] = Plasma stability assay, mouse plasma; conditions: mouse plasma, 37°C, 4 h
# human CAIX = human CAIX (Homo sapiens, UniProt Q16790); test: In vitro SPR binding assay of DPI-4452, natLu-DPI-4452 and natGa-DPI-4452 to CAIX (anti-human Fc capture); design: purchased SinoBliological (Sino Biological) 10107-H02H; conditions: SPR
# Method: Surface Plasmon Resonance (SPR) studies were performed on a Biacore™ T200 using a ligand capture approach. Basically, anti-human Fc antibodies were immobilized on the surface of a sensor chip and CAIX was captured on the functionalized surface via its Fc Tag.
# Then, each compound was injected at increasing concentrations on the captured CAIX in order to measure the in real-time interaction of the compound to its target (i.e. the captured CAIX). The in real-time monitoring of the association and dissociation of the interaction gives access to the interaction kinetics parameters (i.e. the association and dissociation rate constants and the resulting affinity constants).
# • A series S CM5 sensor chip was used (Cytiva). • All reagents used for the immobilization procedure were part of the Amine Coupling Kit, type 2 and/or the Human Antibody Capture Kit (Cytiva). The running buffer (HBS-EP+) was prepared by 10-fold dilution of the stock HBS-EP+ 10× solution (Cytiva). • Anti-human Fc antibodies stock solution (0.5 mg/mL in 0.15 M NaCl) was diluted in 10 mM sodium acetate pH 5.0 to a final concentration of 25 μg/mL directly into a plastic vial 7 mm. • Amine coupling reagents were transferred into plastic vials 7 mm as follow: • 95 μL of 0.4 M 1-ethyl-3-(3-dimethylaminopropyl)carbodiimide (EDC). • 95 μL of 0.1 M N-hydroxysuccinimide (NHS). • An empty plastic vial 7 mm was added in the Biacore™ sample rack for mixing. • 150 μL of 1 M ethamolamine-HCl, pH 8.5. • Plastic vials were closed with rubber caps and the sample rack was inserted into the Biacore™ T200 sample compartment. • The Biacore™ T200 Amine Wizard was used to immobilize the anti-Human Fc antibodies on the four flow-cells of a series S CM5 sensor chip simultaneously with defined contact time of 360 seconds and flow-rate of 5 μL/min. • The immobilization procedure was performed at 25° C., following Cytiva's recommendations, as described in Table 23.
# This procedure allowed to reach immobilization levels between 6000 and 9000 RU of anti-human Fc antibodies on the sensor chip surface.
# • CAIX (Sino Biological, 10107-H02H) stock solution was prepared from lyophilized material reconstituted with deionized water to a concentration of 0.25 μg/mL (3.69 μM), following the supplier recommendations. • CAIX working solution was obtained after dilution of CAIX stock solution with PBS-P+1×, 0.1% DMSO to a final concentration of 200 nM directly in a Biacore™ plastic vial.
# • For each measurement, the raw surface plasmon resonance response (RU) was plotted against time (s) as a sensorgram using the Biacore™ T200 Control Software. • Raw data were corrected by double referencing with subtraction of the signal of both the reference flow-cell and the blank cycle. • The association and dissociation rate constants (ka and kd, respectively), as well as the dissociation constant KD and dissociation half-life t1/2 were determined from the corrected sensorgrams by fitting the data to a 1:1 Langmuir binding model with the Biacore™ T200 evaluation software.
# T3 sequence (P08473 52-750 limits assumed): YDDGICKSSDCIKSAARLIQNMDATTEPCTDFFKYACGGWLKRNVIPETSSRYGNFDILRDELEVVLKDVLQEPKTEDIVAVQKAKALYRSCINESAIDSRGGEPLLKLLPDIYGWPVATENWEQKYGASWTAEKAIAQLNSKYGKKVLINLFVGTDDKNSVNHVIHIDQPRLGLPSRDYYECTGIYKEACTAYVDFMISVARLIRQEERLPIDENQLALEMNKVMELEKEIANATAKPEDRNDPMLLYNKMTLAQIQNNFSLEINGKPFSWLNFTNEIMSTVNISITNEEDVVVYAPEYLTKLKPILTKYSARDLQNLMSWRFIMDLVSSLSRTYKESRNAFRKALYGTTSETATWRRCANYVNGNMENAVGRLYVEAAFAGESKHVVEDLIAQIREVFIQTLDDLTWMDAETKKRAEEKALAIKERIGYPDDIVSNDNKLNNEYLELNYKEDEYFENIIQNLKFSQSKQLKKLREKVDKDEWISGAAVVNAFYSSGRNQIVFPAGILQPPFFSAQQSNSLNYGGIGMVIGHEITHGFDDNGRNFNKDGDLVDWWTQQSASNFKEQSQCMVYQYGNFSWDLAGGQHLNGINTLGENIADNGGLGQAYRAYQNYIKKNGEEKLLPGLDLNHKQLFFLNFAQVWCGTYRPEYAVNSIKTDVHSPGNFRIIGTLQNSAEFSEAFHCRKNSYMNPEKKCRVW
IC50 [1],t1/2 category (activity) [2],Kd [2],% intact compound remaining after 24 h incubation [3],% intact compound remaining (incubation time) [4],SMILES,affinity of binding to CAIX (human CAIX)
< 10 nM,A (t1/2>15.0 minutes),< 10 nM,>95%,98%,CC(C)C[C@@H]1NC(=O)[C@H](Cc2c[nH]c3ccccc23)NC(=O)[C@H](CC(=O)O)NC(=O)[C@H]2CCCN2C(=O)[C@H](CCC(=O)O)NC(=O)[C@@H](NC(=O)[C@H](Cc2ccc(O)cc2)NC(=O)[C@@H](NC(=O)CN2CCC(NC(=O)CN3CCN(CC(=O)O)CCN(CC(=O)O)CCN(CC(=O)O)CC3)CC2)C(C)C)CSCc2cccc(c2)CSC[C@@H](C(N)=O)NC(=O)[C@H](C)NC(=O)[C@H](Cc2c[nH]c3ccccc23)NC(=O)[C@H]([C@@H](C)O)NC1=O [3BP-3432] ({DOTA}-[X2]VYCE[dP]DWLTWAC-NH2; linker 4-13 via mXylylene),–
< 10 nM,–,–,>95%,>95%,"CC(=O)N[C@H](C(=O)N[C@@H](Cc1ccc(O)cc1)C(=O)N[C@H]1CSCc2cccc(c2)CSC[C@@H](C(=O)NCCCCCNC(=O)CN2CCN(CC(=O)O)CCN(CC(=O)O)CCN(CC(=O)O)CC2)NC(=O)[C@H](C)NC(=O)[C@H](Cc2c[nH]c3ccccc23)NC(=O)[C@H]([C@@H](C)O)NC(=O)[C@H](CC(C)C)NC(=O)[C@H](Cc2c[nH]c3ccccc23)NC(=O)[C@H](CC(=O)O)NC(=O)[C@H]2CCCN2C(=O)[C@H](CCC(=O)O)NC1=O)C(C)C [3BP-3434, Ac-Val-Tyr-[Cys(3MeBn)-Glu-pro-Asp-Trp-Leu-Thr-Trp-Ala-Cys]-Ape-NH-DOTA] (Ac-VYCE[dP]DWLTWAC-{NH(CH2)5NHDOTA}; linker 3-12 via mXylylene)",–
< 10 nM,A (t1/2>15.0 minutes),< 10 nM,63%,>95%,"CC(=O)N[C@H](C(=O)N[C@@H](Cc1ccc(O)cc1)C(=O)N[C@H]1CSCc2cccc(c2)CSC[C@@H](C(N)=O)NC(=O)[C@H](CCC(=O)NCCCNC(=O)CN2CCN(CC(=O)O)CCN(CC(=O)O)CCN(CC(=O)O)CC2)NC(=O)[C@H](Cc2c[nH]c3ccccc23)NC(=O)[C@H]([C@@H](C)O)NC(=O)[C@H](CC(C)C)NC(=O)[C@H](Cc2c[nH]c3ccccc23)NC(=O)[C@H](CC(=O)O)NC(=O)[C@H]2CCCN2C(=O)[C@H](CCC(=O)O)NC1=O)C(C)C [3BP-3478, Ac-Val-Tyr-[Cys(3MeBn)-Glu-pro-Asp-Trp-Leu-Thr-Trp-Glu(NH-Apr-DOTA)-Cys]-NH2] (Ac-VYCE[dP]DWLTWE(NH(CH2)3NHDOTA)C-NH2; linker 3-12 via mXylylene)",–

# The remaining lines, values behind:
SMILES,IC50 [1],t1/2 category (activity) [2],Kd [2],% intact compound remaining after 24 h incubation [3],% intact compound remaining (incubation time) [4],affinity of binding to CAIX (human CAIX)
CC(=O)N[C@@H](CCCCNC(=O)CN1CCN(CC(=O)O)CCN(CC(=O)O)CCN(CC(=O)O)CC1)C(=O)N[C@H](C(=O)N[C@@H](Cc1ccc(O)cc1)C(=O)N[C@H]1CSCc2cccc(c2)CSC[C@@H](C(N)=O)NC(=O)[C@H](C)NC(=O)[C@H](Cc2c[nH]c3ccccc23)NC(=O)[C@H]([C@@H](C)O)NC(=O)[C@H](CC(C)C)NC(=O)[C@H](Cc2c[nH]c3ccccc23)NC(=O)[C@H](CC(=O)O)NC(=O)[C@H]2CCCN2C(=O)[C@H](CCC(=O)O)NC1=O)C(C)C [3BP-3427] (Ac-K(DOTA)VYCE[dP]DWLTWAC-NH2; linker 4-13 via mXylylene),< 10 nM,–,–,>95%,>95%,–
"CC(C)C[C@@H]1NC(=O)[C@H](Cc2cccc(NC(=O)CCCS(N)(=O)=O)c2)NC(=O)[C@H](CC(=O)O)NC(=O)[C@H]2CCCN2C(=O)[C@H](CCC(=O)O)NC(=O)[C@@H](NC(=O)[C@H](CCC(N)=O)NC(=O)CN2CCN(C(=O)CN3CCN(CC(=O)O)CCN(CC(=O)O)CCN(CC(=O)O)CC3)CC2)CSCc2cccc(c2)CSC[C@@H](C(N)=O)NC(=O)[C@H](CO)NC(=O)[C@H](Cc2c[nH]c3ccccc23)NC(=O)[C@H]([C@@H](C)O)NC1=O [^natLu-DPI-4452, metal not drawn]",–,–,–,–,–,subnanomolar affinity
"CC(C)C[C@@H]1NC(=O)[C@H](Cc2cccc(NC(=O)CCCS(N)(=O)=O)c2)NC(=O)[C@H](CC(=O)O)NC(=O)[C@H]2CCCN2C(=O)[C@H](CCC(=O)O)NC(=O)[C@@H](NC(=O)[C@H](CCC(N)=O)NC(=O)CN2CCN(C(=O)CN3CCN(CC(=O)O)CCN(CC(=O)O)CCN(CC(=O)O)CC3)CC2)CSCc2cccc(c2)CSC[C@@H](C(N)=O)NC(=O)[C@H](CO)NC(=O)[C@H](Cc2c[nH]c3ccccc23)NC(=O)[C@H]([C@@H](C)O)NC1=O [^natGa-DPI-4452, metal not drawn]",–,–,–,–,–,subnanomolar affinity
CC(C)C[C@@H]1NC(=O)[C@H](Cc2c[nH]c3ccccc23)NC(=O)[C@H](CC(=O)O)NC(=O)CNC(=O)[C@H](CCC(=O)O)NC(=O)[C@@H](NC(=O)[C@H](Cc2ccc(O)cc2)NC(=O)[C@@H](NC(=O)CCC(=O)NCCCOCCOCCOCCCNC(=O)CN2CCN(CC(=O)O)CCN(CC(=O)O)CCN(CC(=O)O)CC2)C(C)C)CSCc2cccc(c2)CSC[C@@H](C(N)=O)NC(=O)[C@H](CCC(N)=O)NC(=O)[C@H](Cc2c[nH]c3ccccc23)NC(=O)[C@H]([C@@H](C)O)NC1=O [3BP-2959] ({X3-Suc}-VYCEGDWLTWQC-NH2; linker 3-12 via mXylylene),< 10 nM,D (t1/2≤2.0 minutes),–,>95%,>95%,–
